Test results published in patent US20240197688A1, “COMBINATION MEDICINE FOR PREVENTING/TREATING DYSLIPIDEMIA OR CARDIOVASCULAR DISEASE” (KOWA COMPANY, LTD., priority 2021, published 2024).

Tests used:
Type in all cases: in vivo
[1] = tested on: Wistar rat; test: Effect of combination use of compound A and compound B on TG index of rat; details: male Wistar rat, oral once a day for 2 weeks; compound A 0.3 mg/kg, compound B 30 mg/kg, alone or in combination; actual value
From the text: Male rats (7-week-old, Wistar [Crlj: WI], Charles River Laboratories Japan, Inc.) were used for an experiment. Blood was collected from the jugular vein under satiation, and the rats were divided into four groups (N=6) based on TG and TC in the plasma and body weights. For two weeks from the next day of the grouping, each of a solvent (0.5% carboxymethyl cellulose aqueous solution: CMC), a compound A (pemafibrate) alone, a compound B (bempedoic acid) alone, and a combination of pemafibrate and bempedoic acid was orally administered once per day. After four hours from the final administration of the drug, blood was collected under isoflurane anesthesia to obtain plasma. Parameters in the blood were measured using an automated analyzer (Labospect 003, Hitachi High-Technologies Corporation). A lipid content in the liver was measured using the method described in J. Biol. Chem. 226 (1), 497-509 (1957) (FOLCH method). A TG index (%) was expressed as a ratio of a product of a blood TG concentration and a TG content in the liver of a sample to that of Control. In the present Example, the compound A was prepared and used according to the method described in Patent Document 1. […] Comparison between the control group and each of the drug administration groups was performed by a multiple comparison test of Dunnett, and a risk rate of less than 5% was determined to have a significant difference.

[2] = tested on: db/db mice; test: Effect of combination use on total cholesterol content in liver of db/db mice; details: male db/db mice, oral once a day for 2 weeks; compound A 0.3 mg/kg, compound B 10 mg/kg, alone or in combination
From the text: Male mice (8-week-old, db/db: BKS.Cg−+Leprdb/+Leprdb/Jcl, Lean: BKS. Cg−m+/m+/Jcl, CLEA Japan, Inc.) were used for an experiment. They were divided into four groups (N=8) based on body weights. For two weeks from the next day of the grouping, each of a solvent (0.5% methylcellulose aqueous solution: MC), a compound A (pemafibrate) alone, a compound B (bempedoic acid) alone, and a combination of pemafibrate and bempedoic acid was orally administered once per day. After four hours from the final administration of the drug, the liver was extracted under isoflurane anesthesia, and the TC concentration in the liver was measured using the FOLCH method described above. • Group 1: Control (Solvent Only) • Group 2: 0.3 mg/kg of Compound A • Group 3: 10 mg/kg of Compound B • Group 4: 0.3 mg/kg of Compound A and 10 mg/kg of Compound B The results were presented by an average value±standard error. Comparison between the control group and each of the drug administration groups was performed by a multiple comparison test of Tukey, and a risk rate of less than 5% was determined to have a significant difference.

[3] = tested on: PPARα gene; test: Effect of combination use on expression level of PPARα gene in liver of rat (quantitative PCR); details: male Wistar rat, oral once a day for 2 weeks; compound A 0.3 mg/kg, compound B 30 mg/kg, alone or in combination; β-actin internal standard; actual value
From the text: Male rats (7-week-old, Wistar [Crlj: WI], Charles River Laboratories Japan, Inc.) were used for an experiment. Blood was collected from the jugular vein under satiation, and the rats were divided into four groups (N=6) based on TG and TC in the plasma and body weights. For two weeks from the next day of the grouping, each of a solvent (0.5% carboxymethyl cellulose aqueous solution: CMC), a compound A (pemafibrate) alone, a compound B (bempedoic acid) alone, and a combination of pemafibrate and bempedoic acid was orally administered once per day. After four hours from the final administration of the drug, blood was collected under isoflurane anesthesia to obtain the liver. RNA in the liver was extracted using ISOGEN (Nippon Gene Co., Ltd.), and cDNA was prepared using a high-capacity cDNA reverse transcription kit (Thermo Fischer Scientific). Quantitative PCR (polymerase chain reaction) was performed using the prepared cDNA, and the relative value of the expression level of the PPARα gene was calculated using β-actin gene as an internal standard. […]
The results were presented by an average value standard error. Comparison between the control group and each of the drug administration groups was performed by a multiple comparison test of Dunnett, and a risk rate of less than 5% was determined to have a significant difference.

Structure (SMILES) | TG index (ratio of product of blood TG concentration and liver TG content to that of Control) [1] | total cholesterol content in the liver compared to Control [2] | expression level of PPARα gene (Ppara) in the liver relative to Control [3]
CC(C)(CCCCCC(O)CCCCCC(C)(C)C(=O)O)C(=O)O [compound B, 8-hydroxy-2,2,14,14-tetramethylpentadecanedioic acid] | 60.6% | 87.0% | 1.22 times
CC[C@@H](Oc1cccc(CN(CCCOc2ccc(OC)cc2)c2nc3ccccc3o2)c1)C(=O)O [compound A, (R)-2-[3-[[N-(benzoxazole-2-yl)-N-3-(4-methoxyphenoxy)propyl]aminomethyl]phenoxy]butyric acid] | 65.4% | 86.2% | 1.17 times
